Where a name gives a salt, the structure may show the parent alone.
Assays:
[1] = test system: white blood cell count (WBC); settings: patients; cited from earlier work
[2] = test system: Neutrophils; assay: Myelosuppression (reduction of neutrophils) by NAT-2 genotype in patients; type: in vivo, human
Protocol: Thirty-two (32) patients were treated amonafide dihydrochloride. Sixteen (16) were male and sixteen (16) were female. The mean age was 65 years. The dose schedule was days 1, 8, 15 and thereafter every 28 days. The dosages ranged from 300 to 500 mg/m^2 in a dose escalation studied to determine dose limiting toxicity (DLT).
Patients were genotyped to determine their NAT-2 (N-acetyl transferase) genotype. See D. W. Hein, et al., “Molecular Genetics and Epidemiology of the NAT1 and NAT2 Acetylation Polymorphisms,” Cancer Epidemiology, Biomarkers & Prevention Vol. 9, 29-42, January 2000.

[3] = Water solubility of amonafide salts; type: physicochemical; settings: as compared to a monohydrochloride salt

| SMILES | effect on white blood cell count [1] | Average % Reduction of Neutrophils ([2]; I/R (Fast) genotype, 18 patients, dose 400 mg/m2) [%] | Average % Reduction of Neutrophils ([2]; I/R (Fast) genotype, 18 patients, dose 400 mg/m2, listed as amonafide) [%] | Average % Reduction of Neutrophils ([2]; S (Slow) genotype, 14 patients, dose 500 mg/m2) [%] | solubility in water [3] |
| --- | --- | --- | --- | --- | --- |
| CC(=O)Nc1cc2c3c(cccc3c1)C(=O)N(CCN(C)C)C2=O [acetyl amonafide, N-acetyl amonafide] | induce leukocytopenia and, in particular, granulocytopenia | – | – | – | – |
| CN(C)CCN1C(=O)c2cccc3cc(N)cc(c23)C1=O [amonafide dihydrochloride, 5-amino-2-[(dimethylamine)ethyl]-1H-benz[de-]isoquinoline-1,3-(2H)-dione] | – | 78 | ~80 | 55 | more soluble in water |
